According to patent US20150237877A1, “METHODS OF HANDLING PERSIMMONS” (AGROFRESH INC., priority 2012, published 2015):

Experiments:
Assay type in all cases: in vivo, Persimmon (Diasoyros kaki)
[1] = tested on: persimmons, variety Rojo Brillante; assay: Example 4: pulp firmness of persimmons, MCP before storage, CO2 astringency removal after storage; details: cold storage, then room temperature for 7 days, MCP 600 ppb where applied
Procedure: Persimmons are harvested in Valencia—Spain and in the packing house part of the fruits are packed in plastic boxes and the other part is packed in MAP bags. • Location: Spain • Variety: Rojo Brillante (astringent, need CO2 application, ready to eat after astringency removal process) • Storage at 0° C. for 72 days • MCP application before the storage • MAP Bag: PE/EVA OP and Nylon bag with dimensions of 27″ (68.6 cm) width by 28″ (71.1 cm) length made from Kenylon 6250 Polyamide Film available from FM • Packaging
The Test Protocol is as follows. • a. PE/EVA OP Bags: 3 kg (6.6 lb) of fruits per bag, 5 bags per box and 6 RPC boxes • b. PE/EVA 8P Bags: 1 kg (2.2 lb) of fruits per bag, 15 bags per box and 6 RPC boxes • c. Nylon 0.2 and 0.35: 10 kg (22.5 lb) of fruits per bag, 2 bag per box and 6 RPC boxes • d. No Bag: 20 kg of fruits per box and 6 RPC boxes
The MAP-packaged persimmons are packaged as follows: fruits are carefully placed into microperforated bags, and the bags are sealed by twisting the open side of the bag, folding down the twisted end, and placing a rubber band around the twisted and folded end of the bag.
The appropriate weight of persimmons is placed in each bag after harvest and shipment. […]
For the Pulp Firmness evaluation, the persimmons have the skin removed with a peeler and the pulp firmness is measured with a Manual Penetrometer with a probe of 8 mm.

persimmons, variety Fuyu = assay: Example 3: pulp firmness of persimmons, MCP before storage; details: for Pulp Firmness, Days 0 / Pulp Firmness, Days 3 / Pulp Firmness, Days 6: 500 ppb of MCP; for Pulp Firmness, Days 0: Day 0 after 60 days cold storage; for Pulp Firmness, Days 3: Day 3 after 60 days cold storage; for Pulp Firmness, Days 6: Day 6 after 60 days cold storage
Procedure: Persimmons are harvested in Madera—Calif. —USA and packed in cardboard boxes and shipped to Davis—Calif. At the same day of harvest part of the persimmons are packed in MAP bags. • Location: USA • Variety: Fuyu (non astringent, doesn't need ethanol application, ready to eat after harvest) • Storage at 0° C. for 60 days • MCP application before the storage • MAP Bag: Amcor bag type 30EF90.
The Amcor bag type 30EF90 has dimensions of 39.5″ (100.3 cm) wide and 35″ (88.9 cm) long. The bag is not perforated and has 25 microns thickness with an oxygen (O2) permeability of 6750 cc/[m^2 day]. The OTR of the bag is calculated to be 7560 cm^3/day.
The Test Protocol is as follows. 4 MAP bags are packed. Each bag holds approximately 10 kg (22.5 lb) of persimmons. One such bag is packed in each RPC (Recycle Plastic Container). Total weight of persimmons in MAP bags is approximately 40 kg. Approximately 40 kg of persimmons are placed into RPC identical to those used for the MAP bags.
The MAP-packaged persimmons are packaged as follows: 80 fruits, approximately 10 kg were carefully placed into microperforated bags, and the bags are sealed by twisting the open side of the bag, folding down the twisted end, and placing a rubber band around the twisted and folded end of the bag.
The appropriate weight of persimmons is placed in each bag after harvest and shipment. Bags are placed in RPC carrying devices. Persimmons then are moved to a Cold Room at 0° C.
(§1) On the same day the persimmons are bagged, each treatment set is marked, placed in a hermetical chamber at the Cold Room. All chambers are of equal size and packed the same way. Treatment lasts for 12 hours. In the chambers for the “MCP” treatment groups, at the beginning of the treatment period, SmartTabs™ tablets are placed in the chamber. The amount of SmartTab™ tablets is chosen to achieve the indicated concentration of 1-methylcyclopropene in the atmosphere of the chamber.
After 60 days of storage at Cold Room, the bags are removed and the RPCs are moved into racks at room temperature for storage and observation.
Evaluation firmness is as follows. Day “zero” is the day the persimmons are removed from the cold storage.
(§2) For the Pulp Firmness evaluation, the persimmons have the skin removed with a peeler and the pulp firmness is measured with a Firmness Texture Analyzer (FTA) with a probe of 8 mm.

[2] = tested on: persimmons, variety Giombo; assay: Example 1: pulp firmness of persimmons, MCP before storage, ethanol after storage; details: for Pulp Firmness, Day 0 / Pulp Firmness, Day 1 / Pulp Firmness, Day 4: 1000 ppb of MCP
Procedure: Persimmons are harvested in Mogi das Cruzes—SP—Brazil and packed in RPC (Recycle Plastic Container) and shipped to Piracicaba—SP. At the same day of harvest part of the persimmons are packed in MAP bags. • Location: Brazil • Variety: Giombo (astringent and need to be treated with ethanol to be ready to eat) • Storage at 12° C. for 15 days • MAP Bag: a Nylon bag with dimensions of 27″ (68.6 cm) width by 28″ (71.1 cm) length made from Kenylon 6250 Polyamide Film available from FM Packaging. • MCP application before the storage • Ethanol Application after the storage
For the MAP bag used, the base film has 25 microns thickness without laser holes. The oxygen (O2) permeation of the MAP bag used is about 28 cc/m^2-day and the CO2 permeation is about 227 cc/m^2-day. The bags are laser drilled in the length direction with 105 micron holes at two locations 9″ (22.9 cm) from each side of the bag. The hole spacing is 9.06 mm. The total number of laser holes in the 20″ (8″ for tie off) length direction of the bag are about 228 holes. At an average hole diameter of 105 micron (pi×r^2=8630 micron^2), the 228 holes can provide an open area of ˜2.0 mm^2. The OTR of the bag is calculated to be 32,250 cm^3/day.
(§3) The Test Protocol is as follows. 4 MAP bags are packed. Each bag holds approximately 16 kg (36 lb) of persimmons. One such bag is packed in each RPC. Total weight of persimmons in MAP bags is approximately 64 kg. Approximately 64 kg of persimmons are placed into RPC identical to those used for the MAP bags.
(§4) The MAP-packaged persimmons are packaged as follows: 80 fruits, approximately 16 kg are carefully placed into microperforated bags, and the bags are sealed by twisting the open side of the bag, folding down the twisted end, and placing a rubber band around the twisted and folded end of the bag.
(§5) The appropriate weight of persimmons is placed in each bag after harvest and shipment. Bags are placed in RPC carrying devices. Persimmons are moved to a Cold Room at 12° C. next.
as §1
Persimmons used in this trial are an astringent variety. To remove the astringency the fruits were treated with ethanol after the 15 days at cold storage.
After removed the bags for the MAP bag groups, all the fruits are placed in a hermetical chamber and treated with ethanol (3.5 mL/kg of fruit) for 12 hours.
After the treatment in the chambers, the RPCs are moved into racks at room temperature for storage and observation.
Firmness evaluation is as follows. Day “zero” was the day the persimmons are harvested and Day “one” is the day the persimmons are removed from the ethanol treatment.
as §2

persimmons = assay: Example 2: pulp firmness of persimmons, 1-MCP and ethanol before storage; details: for Pulp Firmness, Day 0 / Pulp Firmness, Day 1 / Pulp Firmness, Day 4 / Pulp Firmness, Day 7 / Pulp Firmness, Day 10: 1000 ppb of MCP
Excerpt: This Example uses a similar test to Example 1 but with the ethanol application before the storage, at the same time as 1-MCP application.
Persimmons are harvested in Mogi das Cruzes—SP—Brazil and packed in RPC (Recycle Plastic Container) and shipped to Piracicaba—SP. At the same day of harvest part of the persimmons are packed in MAP bags.
as §3, §4, §5
On the same day the persimmons are bagged, each treatment set is marked, placed in a hermetical chamber at the Cold Room. All chambers are of equal size and packed the same way. Treatment lasts for 12 hours. In the chambers for the “MCP” treatment groups, at the beginning of the treatment period, SmartTabs™ tablets are placed in the chamber. The amount of SmartTab™ tablets is chosen to achieve the indicated concentration of 1-methylcyclopropene in the atmosphere of the chamber. At the same time the persimmons are exposed to ethanol with the purpose of removing the astringency (3.5 mL/kg of fruit).
After the storage at Cold Room, the bags are removed and the RPCs are moved into racks at room temperature for storage and observation.
Evaluation firmness is as follows. Day “zero” is the day the persimmons are harvested and Day “one” is the day the persimmons are removed from the cold storage.
as §2

[3] = Day 0 = day of harvest, MCP 1000 ppb where applied

## CC1=CC1 [SmartFresh, 1-methylcyclopropene]
[1]
  Firmness: 3.33 kg
  Δ, difference between the firmness for the treatment and the firmness for the No Bag treatment: 1.33 kg
persimmons, variety Fuyu; 60 days at 0° C. + 3 days at room temperature, MCP 500 ppb where applied
  Firmness results, d60 + 3 day: 9.1 lbf
persimmons, variety Fuyu; 60 days at 0° C. + 6 days at room temperature, MCP 500 ppb where applied
  Firmness results, d60 + 6 day: 6.7 lbf
persimmons, variety Fuyu; 60 days at 0° C., day removed from the cold storage, MCP 500 ppb where applied
  Firmness results, d60 + 0 day: 7.9 lbf
persimmons, variety Fuyu; Bag MAP (Amcor)
  Pulp Firmness, Days 0: 11.1 lbf
  Pulp Firmness, Days 3: 10.0 lbf
  Pulp Firmness, Days 6: 9.9 lbf
persimmons, variety Fuyu; No Bag
  Pulp Firmness, Days 0: 7.9 lbf
  Pulp Firmness, Days 3: 9.1 lbf
  Pulp Firmness, Days 6: 6.7 lbf
persimmons, variety Fuyu; d60 + 6 day
  Firmness difference (Δ) as compared to the control group, d60 + 6 day: 6.2 lbf
persimmons, variety Fuyu; in vivo
  firmness provided to the persimmons / maintained higher than the untreated fruits: 6.2 lbf
[2]; Bag MAP
  Pulp Firmness, Day 0: 20.99 lbf
  Pulp Firmness, Day 1: 18.62 lbf
[2]; Bag MAP, Day 4
  Pulp Firmness, Day 4: 18.18 lbf
[2]; [3]
  Firmness results, Day 0: 20.99 lbf
[2]; Day 1 = day removed from ethanol treatment, after 15 days at 12° C., MCP 1000 ppb where applied
  Firmness results, Day 1: 17.87 lbf
[2]; Day 4
  Firmness difference (Δ) as compared to the control group, Day 4: 0.89 lbf
[2]; Day 4, room temperature after 15 days at 12° C. and ethanol, MCP 1000 ppb where applied
  Firmness results, Day 4: 15.09 lbf
[2]; Day 7
  Firmness difference (Δ) as compared to the control group, Day 7: 1.55 lbf
[2]; Day 7, room temperature after 15 days at 12° C. and ethanol, MCP 1000 ppb where applied
  Firmness results, Day 7: 13.70 lbf
[2]; Day 10, room temperature after 15 days at 12° C. and ethanol, MCP 1000 ppb where applied
  Firmness results, Day 10: 12.62 lbf
[2]; No Bag
  Pulp Firmness, Day 0: 20.99 lbf
  Pulp Firmness, Day 1: 16.65 lbf
[2]; No Bag, Day 4
  Pulp Firmness, Day 4: 14.74 lbf
[2]; after 1 day at room temperature
  firmness provided to the persimmons: 0.15 lbf
persimmons; Bag MAP
  Pulp Firmness, Day 0: 20.99 lbf
  Pulp Firmness, Day 7: 15.84 lbf
  Pulp Firmness, Day 10: 14.23 lbf
persimmons; Bag MAP, Day 1
  Pulp Firmness, Day 1: 18.16 lbf
persimmons; Bag MAP, Day 4
  Pulp Firmness, Day 4: 16.94 lbf
persimmons; [3]
  Firmness results, Day 0: 20.99 lbf
persimmons; Day 1
  Firmness difference (Δ) as compared to the control group, Day 1: 0.15 lbf
persimmons; Day 1 = day removed from the cold storage (12° C.), MCP 1000 ppb where applied
  Firmness results, Day 1: 16.65 lbf
persimmons; Day 4
  Firmness difference (Δ) as compared to the control group, Day 4: −0.39 lbf
persimmons; Day 4, room temperature after cold storage, MCP 1000 ppb where applied
  Firmness results, Day 4: 14.74 lbf
persimmons; No Bag
  Pulp Firmness, Day 0: 20.99 lbf
  Pulp Firmness, Day 7: 13.70 lbf
  Pulp Firmness, Day 10: 12.62 lbf
persimmons; No Bag, Day 1
  Pulp Firmness, Day 1: 17.87 lbf
persimmons; No Bag, Day 4
  Pulp Firmness, Day 4: 15.09 lbf
persimmons; after 7 day at room temperature
  firmness provided to the persimmons: 1.55 lbf
